Data taken from patent US9725460B2, “Oridonin analogs, compositions, and methods related thereto” (THE BOARD OF REGENTS OF THE UNIVERSITY OF TEXAS SYSTEM, priority 2013, dated 2017).
Where two headings read alike, the source gives them in different places.

Key:
MCF-7 = experiment: MTT cancer cell proliferation assay, MCF-7; assay type: cell-based, human
Description: (§1) In Vitro Determination of Effects of Synthesized Diterpenoids on Cancer Cell Proliferation. Breast cancer cell lines MCF-7, MDA-MB-231, […] and MCF/ADR were seeded in 96-well plates at a density of 1×10^4 cells/well and treated with DMSO and 0.01, 0.1, 1, 5, 10, and 100 μM of individual compound for 48 h, and then 20 μL of 3-(4,5-dimethylthiazol-2-yl)-2,5-diphenyltetrazolium bromide (MTT) (5 mg/mL in PBS) was added to each well and further incubated for another 4 h. Then MTT solution was removed, and 150 μL of DMSO was added to each well. Absorbance of all wells was determined by measuring OD at 550 nm after a 10 min incubation on a 96-well GlowMaxate absorbance reader (Promega, Madison, Wis.). Each individual compound was tested in quadruplicate wells for each concentration.
(§2) The growth inhibitory effects of the newly generated pyran-fused diterpenoids were evaluated in four breast cancer cell lines MCF-7 (ER-positive), MDAMB-231 (ER-negative and triple-negative), MDA-MB-468 (ER-negative and triple-negative) as well as MCF-7/ADR (adriamycin-resistant) using MTT assays as described in the Experimental Section.

MDA-MB-231 = experiment: MTT cancer cell proliferation assay, MDA-MB-231; assay type: cell-based, human
Description: as §1, §2

MDA-MB-468 = experiment: MTT cancer cell proliferation assay, MDA-MB-468; assay type: cell-based, human; conditions: Table 3, pyran-fused diterpenoids, MTT 48 h, mean ± SE of three experiments
Description: as §1
as §2, with “Section. The capability of these new molecules to inhibit the growth of cancer cells was summarized in Table 3 and compared with that of adriamycin and 1 spontaneously.” for “Section.”

MCF-7/ADR = experiment: MTT growth inhibition, drug-resistant MCF-7/ADR; assay type: cell-based, human; conditions: Table 3, adriamycin-resistant, MTT 48 h, mean ± SE of three experiments
Description: as §1
as §2, with “Section. The capability of these new molecules to inhibit the growth of cancer cells was summarized in Table 3 and compared with that of adriamycin and 1 spontaneously.” for “Section.”

AsPC1 = experiment: Cancer cell proliferation assay, AsPC1; assay type: cell-based; conditions: Homo sapiens, ASPC1
Description: (§3) In Vitro Determination of Effects of Synthesized Diterpenoids on Cancer Cell Proliferation. […] Then MTT solution was removed, and 150 μL of DMSO was added to each well. Absorbance of all wells was determined by measuring OD at 550 nm after a 10 min incubation on a 96-well GlowMaxate absorbance reader (Promega, Madison, Wis.). Each individual compound was tested in quadruplicate wells for each concentration.

Panc-1 = experiment: Cancer cell proliferation assay, Panc-1; assay type: cell-based; conditions: Homo sapiens, PANC-1
Description: as §3

DU145 = experiment: Cancer cell proliferation assay, DU145; assay type: cell-based; conditions: Homo sapiens, DU-145
[1] = Homo sapiens, MCF7, 48 h, Table 3, pyran-fused diterpenoids, MTT 48 h, mean ± SE of three experiments, read-out: IC50 (μM) MCF-7
[2] = Homo sapiens, MDA-MB-231, 48 h, Table 3, pyran-fused diterpenoids, MTT 48 h, mean ± SE of three experiments, read-out: IC50 (μM) MDA-MB-231
[3] = Homo sapiens, NCI/ADR-RES, 48 h
[4] = Homo sapiens, MCF7, Table 1a, breast cancer, read-out: IC50 (μM) MCF-7
[5] = Homo sapiens, MCF7, Table 2b, mean of at least three experiments, read-out: Effect on proliferation MCF-7 (ER positive) (IC50)
[6] = Homo sapiens, MDA-MB-231, Table 1a, breast cancer, read-out: IC50 (μM) MDA-MB-231
[7] = Homo sapiens, MDA-MB-231, Table 2b, mean of at least three experiments, read-out: Effect on proliferation MDA-MB-231 (ER negative) (IC50)
[8] = Table 1a, pancreatic cancer, read-out: IC50 (μM) AsPC1
[9] = Table 2b, mean of at least three experiments, read-out: Effect on proliferation AsPC1 (IC50)
[10] = Table 1a, pancreatic cancer, read-out: IC50 (μM) Panc-1
[11] = Table 2b, mean of at least three experiments, read-out: Effect on proliferation Panc-1 (IC50)
[12] = Table 1a, prostate cancer, read-out: IC50 (μM) DU145
[13] = Table 2b, mean of at least three experiments, read-out: Effect on proliferation DU145 (IC50)

IC50 (MCF-7; [1]) [µM] | IC50 (MDA-MB-231; [2]) [µM] | IC50 (MDA-MB-468; Homo sapiens, MDA-MB-468, 48 h) [µM] | IC50 (MCF-7/ADR; [3]) [µM] | SMILES | further results
2.41 ± 1.86 | 3.73 ± 0.28 | 5.81 ± 1.92 | 6.79 ± 3.46 | C=C1C(=O)[C@@]23[C@@H]4OC(C)(C)O[C@@]25OC[C@]2(C6=C(CC[C@H](OCC)O6)CC(C)(C)[C@H]2[C@@H]5O)[C@@H]3CC[C@@H]14 [CYD-8-69-2] | 
 |  |  |  | C=C1C(=O)[C@@]23C(CC[C@H]1[C@H]2O)[C@@]12CO[C@]3(O)[C@@H](O)C1C(C)(C)Cc1sc(NC(C)=O)nc12 (stereo partly drawn) [CYD-6-21, N-((6S,7S,7aR,10R,12bR,15R)-6,7,15-trihydroxy-5,5-dimethyl-9-methylene-8-oxo-5,5a,6,7,8,9,10,11,12,12a-decahydro-4H-7,12b-(epoxymethano)-7a,10-methanocyclohepta[7,8]naphtho[1,2-d]thiazol-2-yl)acetamide] | IC50 (MCF-7; [4]): 1.99 µM; IC50 (MCF-7; [5]): 2 µM; IC50 (MDA-MB-231; [6]): 6.82 µM; IC50 (MDA-MB-231; [7]): 6.8 µM; IC50 (AsPC1; [8]): 4.83 µM; IC50 (AsPC1; [9]): 4.8 µM; IC50 (Panc-1; [10]): 6.71 µM; IC50 (Panc-1; [11]): 6.7 µM; IC50 (DU145; [12]): 6.34 µM; IC50 (DU145; [13]): 6.3 µM
5.83 ± 3.75 | 8.18 ± 0.57 | 6.95 ± 1.01 | 10.3 ± 1.65 | C=C1C(=O)[C@@]23[C@@H]4OC(C)(C)O[C@@]25OC[C@]2(C6=C(CC[C@@H](OCC(C)C)O6)CC(C)(C)[C@H]2[C@@H]5O)[C@@H]3CC[C@@H]14 [CYD-8-52-2] | 
2.31 ± 1.02 | 3.3 ± 1.81 | 2.99 ± 1.01 | 3.08 ± 1.12 | C=C1C(=O)[C@@]23[C@@H]4OC(C)(C)O[C@@]25OC[C@]2(C6=C(CC[C@H](OCCCl)O6)CC(C)(C)[C@H]2[C@@H]5O)[C@@H]3CC[C@@H]14 [CYD-8-65-1] | 
2.41 ± 1.45 | 2.23 ± 0.39 | 2.98 ± 0.67 | 3.8 ± 1.15 | C=C1C(=O)[C@@]23[C@@H]4OC(C)(C)OC25OC[C@]2(C6=C(CC[C@H](OCCCC)O6)CC(C)(C)[C@H]2[C@@H]5O)[C@@H]3CC[C@@H]14 [CYD-8-69-1] | 
7.79 ± 3.18 | 7.57 ± 0.44 | 6.63 ± 0.77 | 8.6 ± 0.7 | C=C1C(=O)[C@@]23[C@@H]4OC(C)(C)O[C@@]25OC[C@]2(C6=C(CC[C@H](OCCCN=[N+]=[N-])O6)CC(C)(C)[C@H]2[C@@H]5O)[C@@H]3CC[C@@H]14 [CYD-8-87] | 
5.17 ± 2.9 | 5.89 ± 2.04 | 5.96 ± 0.29 | 5.34 ± 1.29 | C=C1C(=O)[C@@]23[C@@H]4OC(C)(C)O[C@@]25OC[C@]2(C6=C(CC[C@@H](OCCCCO)O6)CC(C)(C)[C@H]2[C@@H]5O)[C@@H]3CC[C@@H]14 [CYD-8-67-2] | 
2.14 ± 1.11 | 3.18 ± 0.24 | 2.65 ± 0.14 | 4.51 ± 1.54 | C=C1C(=O)[C@@]23[C@@H]4OC(C)(C)O[C@@]25OC[C@]2(C6=C(CC[C@H](OCCCCO)O6)CC(C)(C)[C@H]2[C@@H]5O)[C@@H]3CC[C@@H]14 [CYD-8-67-1] | 
 |  |  |  | C=C1C(=O)[C@@]23C(CC[C@H]1[C@H]2O)[C@@]12CO[C@]3(O)[C@@H](O)C1C(C)(C)Cc1sc(N3CCCCCC3)nc12 (stereo partly drawn) [CYD-6-26-2, (6S,7S,7aR,10R,12bR,15R)-2-(azepan-1-yl)-6,7,15-trihydroxy-5,5-dimethyl-9-methylene-5,5a,6,7,10,11,12,12a-octahydro-4H-7,12b-(epoxymethano)-7a,10-methanocyclohepta[7,8]naphtho[1,2-d]thiazol-8(9H)-one] | IC50 (MCF-7; [4]): 1.15 µM; IC50 (MCF-7; [5]): 1.2 µM; IC50 (MDA-MB-231; [6]): 6.82 µM; IC50 (MDA-MB-231; [7]): 6.8 µM; IC50 (AsPC1; [8]): 2.3 µM; IC50 (AsPC1; [9]): 2.3 µM; IC50 (Panc-1; [10]): 6.29 µM; IC50 (Panc-1; [11]): 6.3 µM; IC50 (DU145; [12]): 4.74 µM; IC50 (DU145; [13]): 4.7 µM
 |  |  |  | C=C1C(=O)[C@@]23[C@@H]4OC(C)(C)O[C@@]25OC[C@]2(C6=C(CC[C@@H](OCC)O6)CC(C)(C)[C@H]2[C@@H]5O)[C@@H]3CC[C@@H]14 [CYD-8-45-2] | IC50 (MCF-7; Table 3, pyran-fused diterpenoids, MTT 48 h, mean ± SE of three experiments, read-out: IC50 (μM) MCF-7): 0.44 ± 0.27 µM; IC50 (MDA-MB-231; Table 3, pyran-fused diterpenoids, MTT 48 h, mean ± SE of three experiments, read-out: IC50 (μM) MDA-MB-231): 0.54 ± 0.14 µM; IC50 (MDA-MB-468): 0.52 ± 0.18 µM; IC50 (MCF-7/ADR): 1.64 ± 0.72 µM
